Assay results published in patent publication US6958341B2, “Pyrazolopyrimidines as CRF antagonists” (Bristol-Myers Squibb Pharma Company, priority 1999, dated 2005).

## CCC(CC)c1c(O)nn2c(-c3ccc(Cl)cc3Cl)c(C)cnc12 [Example 92, 7-(2,4-dichlorophenyl)-2-hydroxy-6-methyl-3-(3-pentyl)pyrazolo[1,5-a]pyrimidine]
  melting point: 227 to 228 °C
